Source: patent US10456407B2, “Combination therapy for treating cancer” (Epizyme, Inc., priority 2015, dated 2019)

How the values were obtained:
Assay type in all cases: cell-based
[1] = tested on: OCI-Ly19 cells; assay: RT2 Glucocorticoid signaling PCR array, OCI-LY19 (Table 4a, printed OCT) cell line; conditions: vs DMSO
Excerpt: (§1) Expression levels of (A). Sestrin; (B). TNF and (C) GILZ normalized to DMSO controls for each cell line with the indicated single agent or combination.

[2] = tested on: SU-DHL10 cells; assay: RT2 Glucocorticoid signaling PCR array, SU-DHL10 (SUDHL10) cell line (Table 4d); conditions: SUDHL10, 4 days, vs DMSO
Excerpt: as §1

[3] = tested on: RL cells; assay: RT2 Glucocorticoid signaling PCR array, RL (Table 4e, printed RI) cell line; conditions: 4 days, Cpd44 1 uM, Pred 10-fold below 4-day IC50, vs DMSO, B2M-normalized
Excerpt: as §1

[4] = tested on: OCI-Ly19 cells; assay: RT2 Glucocorticoid signaling PCR array, OCI-LY19 (Table 4a, printed OCT) cell line; conditions: vs DMSO; remark: listed apart in the source
[5] = tested on: SU-DHL4 cells; assay: RT2 Glucocorticoid signaling PCR array, SU-DHL4 (SUDHL4) cell line (Table 4f); conditions: SUDHL4, 4 days, vs DMSO

C[C@]12C=CC(=O)C=C1CC[C@@H]1[C@@H]2[C@@H](O)C[C@@]2(C)[C@H]1CC[C@]2(O)C(=O)CO [Prednisolone, prednisolone]
ΔΔCT, AFF1 ([1]; gene AFF1): −0.304
ΔΔCT, AMPD3 ([1]; gene AMPD3): −0.109
ΔΔCT, ANXA4 ([1]; gene ANXA4): 0.189
ΔΔCT, CEBPA ([1]; gene CEBPA): 0.031
ΔΔCT, CREB1 ([1]; gene CREB1): 0.060
ΔΔCT, CREB3 ([1]; gene CREB3): −0.156
ΔΔCT, GHRHR ([1]; gene GHRHR): −2.603
ΔΔCT, GOT1 ([1]; gene GOT1): 0.094
ΔΔCT, PER1 ([1]; gene PER1): 0.263
ΔΔCT, RGS2 ([1]; gene RGS2): 0.390
ΔΔCT, SPSB1 ([1]; gene SPSB1): 0.387
ΔΔCT, TBL1XR1 ([1]; gene TBL1XR1): −0.234
ΔΔCT, TNF ([1]; gene TNF): −0.773
ΔΔCT, VLDLR ([1]; gene VLDLR): 0.081
ADARB1 ΔΔCT [2]: 2.234
AK2 ΔΔCT [2]: −0.345
ARIDS8 ΔΔCT [2]: 1.603
ASPH ΔΔCT [2]: 0.169
CEBPA ΔΔCT [2]: 0.784
DDIT4 ΔΔCT [2]: −1.212
H6PD ΔΔCT [2]: 0.844
LOX ΔΔCT [2]: −0.505
NR3C1 ΔΔCT [2]: 0.256
PER2 ΔΔCT [2]: −0.204
SPHK1 ΔΔCT [2]: −0.279
STAT5B ΔΔCT [2]: 0.719
TNF ΔΔCT [2]: 0.221
VDR ΔΔCT [2]: −0.245
ΔΔCT ([3]; ATF4 mRNA): 1.364
ΔΔCT ([3]; CREB3 mRNA): 0.762
ΔΔCT ([3]; CYB561 mRNA): −1.663
ΔΔCT ([3]; PIK3R1 mRNA): 0.974
ΔΔCT ([3]; POU2F1 mRNA): 1.130
ΔΔCT ([3]; SESN1 mRNA): −4.062
ΔΔCT ([3]; SLC19A2 mRNA): 0.047
ΔΔCT ([3]; ZHX3 mRNA): 0.168
ΔΔCT, ADARB1 ([4]; gene ADARB1): −0.049
ΔΔCT, AK2 ([4]; gene AK2): −0.063
ΔΔCT, ANGPTL4 ([4]; gene ANGPTL4): −0.754
ΔΔCT, ARID68 ([4]; gene ARID68): −0.079
ΔΔCT, ASPH ([4]; gene ASPH): 0.346
ΔΔCT, ATF4 ([4]; gene ATF4): 0.456
ΔΔCT, BCL6 ([4]; gene BCL6): 0.239
ΔΔCT, CEBPB ([4]; gene CEBPB): 0.686
ΔΔCT COL4A2 ([4]; gene COL4A2): 1.601
ΔΔCT, CREB3L4 ([4]; gene CREB3L4): 0.152
ΔΔCT CTGF ([4]; gene CTGF): −1.080
ΔΔCT, DDIT4 ([4]; gene DDIT4): −1.173
ΔΔCT, DUSP1 ([4]; gene DUSP1): 0.164
ΔΔCT, EHD3 ([4]; gene EHD3): −0.773
ΔΔCT, FK8PS ([4]; gene FK8PS): −0.873
ΔΔCT, FOSL2 ([4]; gene FOSL2): −0.480
ΔΔCT, GDPD1 ([4]; gene GDPD1): 1.130
ΔΔCT GLUL ([4]; gene GLUL): −0.090
ΔΔCT, H6PD ([4]; gene H6PD): −0.483
ΔΔCT, HNRPLL ([4]; gene HNRPLL): −0.156
ΔΔCT, KLF9 ([4]; gene KLF9): −1.571
ΔΔCT, KLF13 ([4]; gene KLF13): −0.075
ΔΔCT, LOX ([4]; gene LOX): −1.179
ΔΔCT MERTK ([4]; gene MERTK): −0.277
ΔΔCT MTZA ([4]; gene MTZA): −0.169
ΔΔCT, NFKBIA ([4]; gene NFKBIA): 0.043
ΔΔCT, NR3C1 ([4]; gene NR3C1): −0.286
ΔΔCT PDCC7 ([4]; gene PDCC7): 4.571
ΔΔCT PDGFRB ([4]; gene PDGFRB): −2.242
ΔΔCT, PDP1 ([4]; gene PDP1): −0.422
ΔΔCT, PIK3R1 ([4]; gene PIK3R1): −0.119
ΔΔCT, PLEKHF1 ([4]; gene PLEKHF1): 0.139
ΔΔCT, POU2F1 ([4]; gene POU2F1): 0.048
ΔΔCT, POU2F2 ([4]; gene POU2F2): −0.574
ΔΔCT, RASA3 ([4]; gene RASA3): 0.009
ΔΔCT, RHOB ([4]; gene RHOB): −1.763
ΔΔCT, SESN1 ([4]; gene SESN1): 0.041
ΔΔCT, SGK1 ([4]; gene SGK1): −1.154
ΔΔCT, SLC10A6 ([4]; gene SLC10A6): −0.369
ΔΔCT, SLC19A2 ([4]; gene SLC19A2): 0.410
ΔΔCT, SLC22A5 ([4]; gene SLC22A5): 0.236
ΔΔCT, SNTA1 ([4]; gene SNTA1): 0.119
ΔΔCT, SPHK1 ([4]; gene SPHK1): 0.022
ΔΔCT, STAT5A ([4]; gene STAT5A): −0.064
ΔΔCT, STAT5B ([4]; gene STAT5B): 0.330
ΔΔCT, TNFAIP3 ([4]; gene TNFAIP3): 0.250
ΔΔCT, TSC22D3 ([4]; gene TSC22D3): −1.695
ΔΔCT, USP2 ([4]; gene USP2): −0.585
ΔΔCT, USPS4 ([4]; gene USPS4): 0.286
ΔΔCT, VDR ([4]; gene VDR): −0.730
ΔΔCT, ZHX3 ([4]; gene ZHX3): −0.730
ΔΔCT, ZNF281 ([4]; gene ZNF281): 0.871
ΔΔCT, ADARB1 [5]: −0.516
ΔΔCT, AFF1 [5]: −0.429
ΔΔCT, AK2 [5]: −1.076
ΔΔCT, AMPD3 [5]: −0.891
ΔΔCT, ANGPTL4 [5]: −1.047
ΔΔCT, ANXA4 [5]: −0.890
ΔΔCT, ARID68 [5]: −0.131
ΔΔCT, ASPH [5]: −0.451
ΔΔCT, ATF4 [5]: −0.279
ΔΔCT, CEBPA [5]: −0.301
ΔΔCT, CREB1 [5]: −0.548
ΔΔCT, CREB3 [5]: −0.560
ΔΔCT, CREB3L4 [5]: −0.199
ΔΔCT, CYB561 [5]: −0.720
ΔΔCT, EHD3 [5]: −1.325
ΔΔCT, FK8PS [5]: −1.582
ΔΔCT, GDPD1 [5]: −0.409
ΔΔCT, GHRHR [5]: 0.184
ΔΔCT, GOT1 [5]: −0.402
ΔΔCT, H6PD [5]: 0.160
ΔΔCT, HNRPLL [5]: −0.286
ΔΔCT, IL6R [5]: −0.524
ΔΔCT, IL10 [5]: −0.130
ΔΔCT, KLF9 [5]: −0.821
ΔΔCT, KLF13 [5]: −0.934
ΔΔCT, MT2A [5]: 0.129
ΔΔCT, NR3C1 [5]: −0.427
ΔΔCT, PDCD7 [5]: 0.403
ΔΔCT, PER1 [5]: −0.786
ΔΔCT, PER2 [5]: −1.101
ΔΔCT, PIK3R1 [5]: −0.892
ΔΔCT, PLEKHF1 [5]: −1.285
ΔΔCT, POU2F1 [5]: −0.432
ΔΔCT, RGS2 [5]: −0.372
ΔΔCT, RHOB [5]: 0.724
ΔΔCT, SGK1 [5]: −0.346
ΔΔCT, SLC10A6 [5]: −3.874
ΔΔCT, SLC19A2 [5]: −0.995
ΔΔCT, SLC22A5 [5]: −0.171
ΔΔCT, SNTA1 [5]: −0.687
ΔΔCT, SPSB1 [5]: 0.068
ΔΔCT, STAT5B [5]: −0.268
ΔΔCT, TBL1XR1 [5]: −0.721
ΔΔCT, TNFAIP3 [5]: 0.835
ΔΔCT, TSC22D3 [5]: −2.169
ΔΔCT, USP2 [5]: −1.681
ΔΔCT, USPS4 [5]: −1.060
ΔΔCT, ZFP36 [5]: −0.541
ΔΔCT, ZHX3 [5]: −0.868
